This passage reports IC50 results from patent US12617812B2, “Platinum(IV) complexes, methods of manufacture, compositions containing, and methods of use thereof” (City University of Hong Kong, priority 2021, dated 2026).

The subject of assay [1] is Human lung carcinoma A549 cells. The experiment in a line: MTT cytotoxicity test, A549 cells. The format is cell-based. Conditions: 6 h treatment. The method, then: (§1) Human lung carcinoma A549 cells (American Type Culture Collection, ATCC), and cisplatin-resistant A549cisR cells (American Type Culture Collection, ATCC) are cultured in DMEM with 10% FBS and 100 µg/mL penicillin/streptomycin. Human ovarian carcinoma A2780 and cisplatin-resistant A2780cisR cells are cultured in RPMI-1640 with 10% FBS, 1% L-Glutamine, and 100 µg/mL penicillin/streptomycin. Human lung fibroblast MRC-5 cells (American Type Culture Collection, ATCC) are cultured in MEM with 10% FBS, 1% NEAA, 1% L-Glutamine, 1% sodium pyruvate, and 100 µg/mL penicillin/streptomycin. For A2780cisR and A549cisR cells, 2 μM of cisplatin is added into the culture medium after the attachment to maintain the resistance. All the cells are cultured at 37° C. in 5% CO2.
(§2) The cytotoxic profiles of the various complexes against selected cell lines are obtained by a 3-(4,5-Dimethylthiazol-2-yl)-2,5-diphenyltetrazolium bromide (MTT) assay. Cells are seeded into 96-well plates at a density of 2,500 cells per well (for A549, and A2780) or 5,000 cells per well (for A549cisR, A2780cisR, and MRC-5) and incubated for 24 h. Cells are then treated with medium containing various concentrations of complexes for 6 h. The medium is replaced by phenol-red free medium. Then cells are irradiated with near-infrared radiation (880 nm, 0.4 W/cm^2) for 80 min. After irradiation, cells are further incubated in fresh medium for 18 h at 37° C. Then, the culture medium is removed, cells are then incubated with FBS free medium containing 1 mg/mL MTT for 2 h. Medium containing MTT is removed and 150 μL DMSO is added to each well. The absorbance is measured at 570 and 630 nm. […]
(Tetrazolium dyes change colour on reduction, which living cells bring about.)

The test system of assay [2] is Human lung fibroblast MRC-5 cells. The experiment in a line: MTT cytotoxicity test, MRC-5 cells. The format is cell-based. As to conditions: in the dark with no irradiation, 6 h treatment. The method, then: as §1
The cytotoxic profiles of the various complexes against selected cell lines are obtained by a 3-(4,5-Dimethylthiazol-2-yl)-2,5-diphenyltetrazolium bromide (MTT) assay. Cells are seeded into 96-well plates at a density of 2,500 cells per well (for A549, and A2780) or 5,000 cells per well (for A549cisR, A2780cisR, and MRC-5) and incubated for 24 h. Cells are then treated with medium containing various concentrations of complexes for 6 h. The medium is replaced by phenol-red free medium. Then cells are irradiated with near-infrared radiation (880 nm, 0.4 W/cm^2) for 80 min. After irradiation, cells are further incubated in fresh medium for 18 h at 37° C. Then, the culture medium is removed, cells are then incubated with FBS free medium containing 1 mg/mL MTT for 2 h. Medium containing MTT is removed and 150 μL DMSO is added to each well. The absorbance is measured at 570 and 630 nm.
Cells are treated with the indicated complex for 6 h, the culture medium is replaced with fresh medium and irradiated with or without blue light for 1 h. Then cells are cultured for another 42 h.

Assay [3] relates to cisplatin-resistant A549cisR cells. The experiment in a line: MTT cytotoxicity test, A549cisR cells. In kind it is cell-based, Human. As to conditions: 6 h treatment. The method, then:
as §1, §2

For assay [4], the system named is Human ovarian carcinoma A2780 cells. Kind of assay: MTT cytotoxicity test, A2780 cells. The format is cell-based. Conditions: 6 h treatment. On the procedure:
as §1, §2

Assay [5] deals with cisplatin-resistant A2780cisR cells. The experiment in a line: MTT cytotoxicity test, A2780cisR cells. The format is cell-based, Human. Conditions: 6 h treatment. On the procedure: as §1, §2
Setting [6] is: A549*, in the dark with no irradiation.
The mark [7] stands for this setting: A549cisR*, in the dark with no irradiation.
Where [8] appears, read: in the dark with no irradiation.
The mark [9] stands for this setting: mark * (dark), position of the irradiated row.
Setting [10] is: A2780cisR*, in the dark with no irradiation.

Consider `N.N.O=C([O-])C1(C(=O)[O-])CCC1.[Pt+2]` [Carboplatin, reference compound], for which the IC50 (as a rule, the point on the concentration scale where inhibition reaches its midpoint) is 435 ± 42.9 µM in assay [1] (A549**, with irradiation); 418 ± 33.6 µM in assay [1] (setting [6]); 690 ± 38.5 µM in assay [2]; above 700 µM in assay [3] (A549cisR**, with irradiation); above 700 µM in assay [3] (setting [7]); 303 ± 34.8 µM in assay [4] (setting [8]). Further, the IC50 turned out to be 336 ± 43.8 µM in assay [4] (setting [9]); 630 ± 43.2 µM in assay [5] (A2780cisR**, with irradiation); 668 ± 51.1 µM in assay [5] (setting [10]).

As for `CCN(CC)c1ccc2cc(C(=O)/C=C/c3ccc(N(C)CCC(=O)[O][Pt]4([NH2])([NH2])([OH])[O]C(=O)C5(CCC5)C(=O)[O]4)cc3)c(=O)oc2c1` [Complex 4], the IC50 in assay [1] (A549**, with irradiation) is 17.7 ± 5.1 µM; in assay [1] (setting [6]) it was above 50 µM; in assay [2], above 50 µM; in assay [3] (A549cisR**, with irradiation), 18.9 ± 4.3 µM; in assay [3] (setting [7]) it was above 50 µM; in assay [4] (setting [8]), above 50 µM. The IC50 in assay [4] (setting [9]) was 10.7 ± 2.2 µM; in assay [5] (A2780cisR**, with irradiation), 11.2 ± 2.8 µM; in assay [5] (setting [10]) it was above 50 µM.

Take `CCN(CC)c1ccc2cc(C(=O)/C=C/c3ccc(N(C)CCC(=O)[O][Pt]4([NH2])([NH2])([O]C(=O)Cc5cccc6c(=O)c7ccc(C)c(C)c7oc56)[O]C(=O)C5(CCC5)C(=O)[O]4)cc3)c(=O)oc2c1` [Complex 6]: the IC50 in assay [1] (A549**, with irradiation) was 11.6 ± 1.2 µM; in assay [1] (setting [6]), above 50 µM; in assay [2], above 50 µM; in assay [3] (A549cisR**, with irradiation) it was 12.6 ± 2.1 µM; in assay [3] (setting [7]), above 50 µM; in assay [4] (setting [8]), above 50 µM. The IC50 in assay [4] (setting [9]) is 11.4 ± 1.5 µM; in assay [5] (A2780cisR**, with irradiation), 12.7 ± 1.9 µM; in assay [5] (setting [10]), above 50 µM.

`O=C1[O][Pt]2([NH][C@@H]3CCCC[C@H]3[NH]2)[O]C1=O` [Oxaliplatin, reference compound]: the IC50 in assay [1] (A549**, with irradiation) amounted to 104 ± 8.2 µM; in assay [1] (setting [6]), 97.2 ± 7.5 µM; in assay [2] it was 213 ± 16.4 µM; in assay [3] (A549cisR**, with irradiation) it was 269 ± 16.3 µM; in assay [3] (setting [7]) it was 258 ± 11.6 µM; in assay [4] (setting [8]), 86.5 ± 7.7 µM. The IC50 in assay [4] (setting [9]) amounted to 73.7 ± 5.9 µM; in assay [5] (A2780cisR**, with irradiation), 254 ± 18.2 µM; in assay [5] (setting [10]), 250 ± 12.6 µM.
